One test concerns HCV replicon cells. The test can be described thus: HCV replicon FRET / luciferase assay. The class given is cell-based, Hepatitis C virus. As to conditions: HCV replicon cells, FRET or luciferase activity. On the technique in general: A replicon is a self-replicating genome or part of one, used to study replication in cells.
Test [1] deals with T1, HCV NS5B RdRp genotype 1b (Hepatitis C virus genotype 1b, UniProt Q9WMX2).
T1 construct: The protein was expressed with an 18 amino acid C-terminal truncation to enhance the solubility; made in house; host or cells: E. coli BL21(DE3), pET21a vector
T1 sequence (Q9WMX2 2420-2992): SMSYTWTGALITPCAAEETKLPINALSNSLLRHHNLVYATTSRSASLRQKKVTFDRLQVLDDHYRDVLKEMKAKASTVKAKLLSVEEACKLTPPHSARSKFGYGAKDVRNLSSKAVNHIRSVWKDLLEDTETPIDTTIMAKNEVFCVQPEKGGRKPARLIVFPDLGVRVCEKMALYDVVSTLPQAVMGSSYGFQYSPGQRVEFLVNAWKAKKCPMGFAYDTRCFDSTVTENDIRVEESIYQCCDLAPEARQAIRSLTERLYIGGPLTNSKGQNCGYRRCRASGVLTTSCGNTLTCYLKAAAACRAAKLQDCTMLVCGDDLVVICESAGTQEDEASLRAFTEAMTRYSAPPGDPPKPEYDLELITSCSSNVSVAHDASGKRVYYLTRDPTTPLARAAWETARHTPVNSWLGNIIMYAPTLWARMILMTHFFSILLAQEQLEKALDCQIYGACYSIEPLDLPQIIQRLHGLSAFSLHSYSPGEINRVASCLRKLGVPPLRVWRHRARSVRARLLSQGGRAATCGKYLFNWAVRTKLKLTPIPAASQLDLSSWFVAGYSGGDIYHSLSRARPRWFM
Nature of the test: HCV NS5B RdRp enzyme assay (standard / modified). It is filed as biochemical. Particulars: HCV NS5B RdRp genotype 1b enzyme.

The EC50 is the concentration at which the effect is half-maximal. A low value points to a more potent agent. As usually defined, the IC50 is the midpoint of a concentration-inhibition curve. Low values mean greater potency in that assay, high ones weaker potency in that assay. Compound `CCC(C)S(=O)(=O)NC(=O)c1ccc2c(C3CCCCC3)c3n(c2c1)C[C@@]1(C(=O)N2C4CCC2CN(C)C4)C[C@H]1c1cc(OC)ccc1-3` (some centres unmarked) [drawing 133] came in with an EC50 in the test on HCV replicon cells of 0.001 to 0.5 µM. The IC50 in test [1] lay in the range of 0.001 to 0.5 µM.
